Consider 56 compounds from ChEMBL document CHEMBL1201862, “PubChem BioAssay data set” (2004).

Where “and” joins values, the source holds several entries; their conditions need not be identical. Equal values may be shown once.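 Cells were grown in 96-well plates and exposed to each compound for 48 hours at five concentrations; endpoints were interpolated linearly between bracketing concentrations, or set to the highest concentration if not reached. At the GI50, growth is halved.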 Calls of active or inactive are those of the source. Cut-off read from the data, not from the text of the source: active = GI50 up to about 1.1 µM and inactive = higher. Square brackets hold non-standard residues; d marks the D form. Peptide text beside a SMILES is read from it. pGlu = O=C1CC[C@@H](C(=O)O)N1; Thz = O=C(O)[C@@H]1CSCN1 Some results are limits rather than exact numbers.

Test systems include LXFL 529; HOP-18; XF498; M19-MEL; DLD-1; BT-549; DMS-114; MDA-N.
Holding throughout (assay): NCI-60 cell line screen, 48 h

Turning to `O=c1[nH]ccc(CNC23CC4CC(CC(C4)C2)C3)c1O`, the GI50 in the assay with LXFL 529, in the assay on HOP-18, in the assay on XF498, in the assay with M19-MEL and in the assay on DLD-1 was > 100 µM (inactive) in each case.
For the compound `COc1ccc(C2Oc3c(cccc3-c3c(-c4ccc(O)cc4)oc4cc(O)cc(O)c4c3=O)C(=O)C2O)cc1O` (stereo not drawn), the GI50 with BT-549 was > 100 µM (inactive).
Take `Cc1ccc(C(=O)NC2CCCCC2)cc1/N=N/N(C)C`: the GI50 in the assay on LXFL 529, in the assay on M19-MEL and with DLD-1 was > 100 µM (inactive) in each case.
Consider `COC(=O)/N=C(\NC(=O)OC)Nc1ccc(Oc2ccccc2)cc1NC=O`, for which the GI50 with LXFL 529 is 0.667 µM (active); in the assay with DMS-114, 0.253 µM (active); in the assay on HOP-18, > 100 µM (inactive); in the assay with XF498 it was 0.369 µM (active); with M19-MEL it was 0.312 µM (active); with DLD-1, 0.536 µM (active).
For the compound `CN(C(=O)Nc1ccc(Cl)c(Cl)c1)C1CCCC[C@@H]1N1CCCC1` (stereo partly drawn), the figures for the GI50 in the assay with BT-549 and with MDA-N were 22.4 µM (inactive) and 34 µM (inactive), respectively.
With `CCOC(=O)NN(C(=O)OCC)c1ccc(/N=N/c2ccc(OC)cc2)n1C`, in the assay on MDA-N, the GI50 is 19.7 µM (inactive).
As for `COC(=O)C1=C(C(=O)OC)N(c2ccncc2)C(c2ccco2)=CC1c1ccccc1[N+](=O)[O-]` (stereo not drawn), the GI50 in the assay on BT-549 is 6.7 µM (inactive); in the assay on MDA-N, 2.71 µM (inactive).
For `O=C1CC[C@@H](C(=O)N2CSC[C@H]2C(=O)O)N1` [PIDOTIMOD] ([pGlu]-[Thz]-OH) the same measures were > 100 µM (inactive) and > 100 µM (inactive).
For `O=C1C=C2C(=NC34CCCCC3C(c3ccccc3)C3=C(c5ccccc5CC3)N24)c2ccccc21` (stereo not drawn), the GI50 in the assay with BT-549 and in the assay with MDA-N was > 10 µM (inactive) in each case.
Consider `COC(=O)c1ccc(C)cc1C1CN=NC12Cc1cccc(C)c1C2=O` (stereo not drawn), for which the GI50 in the assay with BT-549 is 25.6 µM (inactive); with MDA-N it was 26.2 µM (inactive).
With `O=C(NCCc1n[nH]c2c1C(=O)C=C(Nc1ccccc1)C2=O)OCc1ccccc1`, the GI50 with BT-549 and in the assay with MDA-N was > 100 µM (inactive) throughout.
Consider `CCC1OCCN1C(C)C` (stereo not drawn), for which the GI50 in the assay on LXFL 529 was > 100 µM (inactive); in the assay with DMS-114, 85.9 µM (inactive); in the assay with M19-MEL, 71.4 µM (inactive); in the assay with DLD-1 it was 92 µM (inactive).
Consider `CSc1nc(O)c(C#N)c(-c2ccc(Cl)cc2)n1`, for which the GI50 in the assay on BT-549 is > 100 µM (inactive).
As to `COc1ccc(-c2c(C#N)c(N)nc(Sc3ccccc3N)c2C#N)cc1`, the GI50 in the assay with BT-549 was 9.35 µM (inactive); with MDA-N it was > 100 µM (inactive).
For `COc1cc(Br)c(CC2C3=C(CCN2C(=O)C2CCC2)CC2(CC3)OCCO2)cc1O` (stereo not drawn), the GI50 in the assay with MDA-N was 34.4 µM (inactive).
For the compound `CCn1c(-c2ccccc2)nc2c1C(=O)c1ccccc1C2=O`, the GI50 was 24.9 µM (inactive) in the assay on BT-549 and 18.8 µM (inactive) with MDA-N.
In the same order, the values of `COc1cccc(N2N=C3c4ccccc4-n4c(nc5ccccc54)C3C2N)c1` (stereo not drawn) are > 100 µM (inactive) and > 100 µM (inactive).
For `c1ccc([P+](CCN2Cc3ccccc3C2)(c2ccccc2)c2ccccc2)cc1`, the GI50 in the assay with MDA-N was 3.27 µM (inactive).
As to `CC1=C(C#N)C(=C(C#N)C#N)OC1(C)Cc1ccccc1` (stereo not drawn), in the assay on BT-549, the GI50 is 35.1 µM (inactive).
With `O=c1c2cc([N+](=O)[O-])ccc2[nH]n1Cc1ccccc1Cl`, the GI50 in the assay on MDA-N is > 100 µM (inactive).
`N#Cc1cc2c(cc1C#N)SCCSCCCSCCS2`: the GI50 in the assay on BT-549 is 15 µM (inactive); in the assay with MDA-N it was > 100 µM (inactive).
For `N#Cc1nc(-c2cc([N+](=O)[O-])cc([N+](=O)[O-])c2)oc1N` the same measures were > 10 µM (inactive) and > 10 µM (inactive).
Regarding `O=C1/C(=C/C=C/c2ccccc2)CCC1CNc1ccc(Br)cc1` (stereo not drawn), the GI50 with BT-549 was > 100 µM (inactive).
For `O=C1/C(=C\c2ccc([N+](=O)[O-])o2)SC2NC(COc3ccc(Cl)cc3)=NN12` (stereo not drawn), the GI50 in the assay on BT-549 was 9.84 µM (inactive); in the assay on MDA-N, 3.48 µM (inactive).
For `Cc1ccc2nc(Cl)c(/C=N/N3C(=O)/C(=C/c4cccc([N+](=O)[O-])c4)N=C3c3ccccc3)cc2c1`, the GI50 was > 100 µM (inactive) in the assay on BT-549 and 20.4 µM (inactive) in the assay on MDA-N.
In the case of `COc1ccc2cc1Oc1ccc(cc1)C[C@H]1c3cc(c(OC)cc3CCN1C)Oc1c(OC)c(OC)cc3c1[C@H](C2)N(C)CC3` [FANCHININ], the GI50 with DMS-114 is 7.36 µM (inactive); with HOP-18 it was 9.42 µM (inactive); in the assay on XF498 it was 10.6 µM (inactive); with DLD-1, 9.29 µM (inactive).
Turning to `COc1ccc2c(c1)/C(=C\c1c(Cl)nc3sc(C)cn13)C(=O)N2`, the GI50 is 5.21 µM (inactive) with BT-549 and 0.418 µM (active) in the assay on MDA-N.
With `COc1ccc(-c2oc3cc(OC)c(OC)c(O)c3c(=O)c2OC)cc1`, the results for the GI50 in the assay on BT-549 and in the assay on MDA-N were 18 µM (inactive) and > 100 µM (inactive), respectively.
In the same order, the values of `COC(=O)C1=C(OC(=O)/C(=C/c2ccccc2)c2ccc(Cl)cc2)C(C(=O)OC)[C@@]2(O)[C@@H](C(=O)OC)[C@H](C)C[C@@H]1[C@@H]2C(=O)OC` (stereo partly drawn) are > 100 µM (inactive) and > 100 µM (inactive).
On to `C=C1C2CCCC1C1(S(C)(=O)=O)CCCCC21O` (stereo not drawn), for which the GI50 in the assay on LXFL 529, in the assay on DMS-114, in the assay with HOP-18, in the assay with M19-MEL and with DLD-1 was > 100 µM (inactive) each time.
Regarding `O=C(O)/C(Cl)=C(\Cl)C(=O)Nc1ccc(Cl)c(Cl)c1Cl`, the GI50 is 20.1 µM (inactive) with LXFL 529; 20.8 µM (inactive) with DMS-114; 16.3 µM (inactive) in the assay with HOP-18; 16.8 µM (inactive) with M19-MEL; 24.5 µM (inactive) with DLD-1.
`CCc1nc(N)nc(N)c1-c1ccc(Cl)c(N=[N+]=[N-])c1`: the GI50 was 6.24 µM (inactive) with LXFL 529; 0.916 µM (active) in the assay on HOP-18; 31 µM (inactive) with XF498; 11.9 µM (inactive) in the assay with M19-MEL; 5.47 µM (inactive) in the assay with DLD-1.
As to `COc1cc(C(=O)OC2CC(C)=CC[C@@]3(C)CC[C@](O)(C(C)C)C23)ccc1O` (stereo partly drawn), the GI50 in the assay on MDA-N is 18.3 µM (inactive).
On to `CC(CCc1ccccc1)NCC(O)n1c(/N=N/N(C)C)nc2c1c(=O)n(C)c(=O)n2C` (stereo not drawn), for which the GI50 in the assay with BT-549 and in the assay on MDA-N was > 100 µM (inactive) throughout.
`O=C(Nc1nnc(-c2c(Cl)c(Cl)c(Cl)c(Cl)c2-c2nc3cc(C(=O)c4ccccc4)ccc3[nH]2)o1)c1ccccc1`: the GI50 in the assay on BT-549 is 23.5 µM (inactive); in the assay on MDA-N, 3.19 µM (inactive).
With `O=C(c1ccccc1)c1ccc(N2C(=O)/C(=C/c3cccc(Oc4ccccc4)c3)N=C2c2ccccc2)c(N2C(=O)/C(=C/c3cccc(Oc4ccccc4)c3)N=C2c2ccccc2)c1`, the GI50 in the assay on BT-549 was 24.7 µM (inactive); in the assay with MDA-N it was 5.09 µM (inactive).
For `CCC(CC)C(=O)OC[n+]1cccc(-c2c(COC(=O)NC(C)C)c(COC(=O)NC(C)C)c3n2CCC3)c1` the same measures were > 100 µM (inactive) and > 100 µM (inactive).
In the same order, the values of `CCOP(=O)(OCC)/C(C#N)=C/c1ncc[nH]1` are > 100 µM (inactive) and > 100 µM (inactive).
Take `Nc1ncnc2c1ncn2[C@H]1C=C[C@@H](NO)C1`: the GI50 in the assay with BT-549 and with MDA-N was > 100 µM (inactive) each time.
Consider `O=C(O)Cc1ccc(-n2nnc3c(=O)[nH][nH]c(=O)c32)cc1`, for which the GI50 in the assay on BT-549 and in the assay on MDA-N was > 100 µM (inactive) each time.
For the compound `Cc1c2c(c(C)n1-c1ccccc1)C(=O)N(CCSC(=N)N)C2=O`, the GI50 in the assay on BT-549 and in the assay on MDA-N was > 100 µM (inactive) each time.
In the case of `CCOc1cc(CCNC)c2c(ccc3ccc(OC)c(O)c32)c1OC`, the GI50 with BT-549 is 16.3 µM (inactive); in the assay on MDA-N, 2.49 µM (inactive).
Consider `CSc1c(C(=O)Nc2ccc(Cl)cc2)c(N)n(N)c(=O)c1C#N`, for which the GI50 in the assay with BT-549 and with MDA-N was > 100 µM (inactive) each time.
As to `CCC(=O)O[C@H]1CC[C@H]2[C@@H]3CCC4=C/C(=N/OC(=O)c5cccc6cc7ccccc7nc56)CC[C@]4(C)[C@H]3CC[C@]12C`, the GI50 with BT-549 was 63.8 µM (inactive); in the assay on MDA-N it was 51.5 µM (inactive).
For `COc1cc(Br)c(/C=N\c2cccc3ccc(OS(=O)(=O)c4cccc([N+](=O)[O-])c4)cc23)cc1OC`, the GI50 was 14.3 µM (inactive) in the assay on LXFL 529; 14.7 µM (inactive) in the assay with DMS-114; > 100 µM (inactive) in the assay on HOP-18; 36.1 µM (inactive) in the assay with M19-MEL; 35.5 µM (inactive) in the assay on DLD-1.
For the compound `C[C@]12OC(=O)[C@]3(O)CC[C@H]4[C@@H](C[C@@H](O)[C@@]5(Cl)CC=CC(=O)[C@]45C)[C@]45OCC6C(=O)O[C@@H]1C[C@@]6(C)[C@H](C4=O)[C@@]32O5` (stereo partly drawn), the GI50 is 0.586 µM (active) with BT-549 and 1.16 µM (inactive) with MDA-N.
`Clc1cc(OCC23CC4CC(CC(C4)C2)C3)nc(OCC23CC4CC(CC(C4)C2)C3)n1`: the GI50 in the assay on BT-549 and in the assay with MDA-N was > 100 µM (inactive) each time.
Regarding `C=C(Cl)C(Cl)(CBr)CCC(Br)C(C)(C)Cl` (stereo not drawn), the GI50 in the assay with BT-549 is 2.05 µM (inactive) and 1.04 µM (active) and 1.79 µM (inactive); in the assay with MDA-N, 2.28 µM (inactive) and 964 nM (active) and 8.77 µM (inactive).
For the compound `CCCCCC[C@H]([C@H](C)O)n1cnc2c(N)ncnc21`, the GI50 with MDA-N is > 100 µM (inactive).
Regarding `Cc1cc(C(O)CNC(C)CCn2cnc3c2c(=O)n(C)c(=O)n3C)ccc1O` (stereo not drawn), the GI50 with BT-549 is > 100 µM (inactive).
The same measure, in the same setting: under `Cc1c(/C=N/NC(=S)Nc2ccc([N+](=O)[O-])cc2)c(=O)n(-c2ccccc2)n1C` stands 15.7 µM (inactive).
As to `CCO/C(=N/S(=O)(=O)C(F)(F)F)N(C(C)C)C(C)C`, the GI50 in the assay with BT-549 and in the assay with MDA-N was > 100 µM (inactive) throughout.
For the compound `Nc1nc(O)c2nc(CNc3ccc(C(=O)NC(CCC(=O)O)C(=O)O)cc3)cnc2n1` (stereo not drawn), the GI50 in the assay with BT-549 is > 100 µM (inactive).
On to `CO[C@]1(c2ccc([N+](=O)[O-])cc2)Oc2ccccc2C(=O)[C@@]1(Nc1ccc(C=O)cc1)OC`, for which the GI50 with BT-549 and in the assay with MDA-N was > 10 µM (inactive) in each case.
Turning to `O=C(O)C[C@@H]1[C@@H](O)[C@@H](O)CN2C(=O)c3ccccc3[C@H]12`, the GI50 in the assay on BT-549 and with MDA-N was > 100 µM (inactive) in each case.
On to `O=C(CCCl)NN=C1NCCN1`, for which the GI50 in the assay with BT-549 and with MDA-N was > 100 µM (inactive) throughout.
